In patent US20250262336A1, “[177LU] LUTETIUM-PSMA I&T COMPOSITION AND DOSIMETRY, KIT, METHOD OF MAKING, AND METHOD OF USING THEREOF” (Curium US LLC, priority 2023, published 2025):

Assay: Cycle 1 normal organ dosimetry (SPECT/CT, TIACs, OLINDA 2.2.3)
Type: in vivo, human
Conditions: for Absorbed Dose in Cycle 1, Mean / Absorbed Dose in Cycle 1, max / Absorbed Dose in Cycle 1, min: N = 16 patients imaged at cycle 1 and 3; for Absorbed Dose, Mean / Absorbed Dose, max / Absorbed Dose, median / Absorbed Dose, min: Cycle 1, n = 26
Procedure: This Example presents the biodistribution, dosimetry, and pharmacokinetics (PK) results of a PK/Dosimetry sub-study performed as part of a Phase III trial. Twenty-seven (27) patients were administered a target activity of 7.4±10% GBq of ^177Lu-PSMA-I&T and underwent single photon emission computed tomography (SPECT)/computed tomography (CT) imaging at four timepoints (4 h, 24 h, 48 h, and 168 h). Image data was analysed to compute time-activity curves (TACs) and subsequently time-integrated activity coefficients (TIACs) in each organ of interest and in organs showing appreciable and meaningful ^177Lu-PSMA-I&T activity. Organ Level Internal Dose Assessment (OLINDA 2.2.3) was used to compute organ and whole body absorbed radiation doses for each patient.
All participating sites underwent a rigorous site setup process during which all dose calibrators, scanners, and gamma counters used in the sub-study were calibrated. Sites were allowed to enroll patients in the sub-study only after the completion and approval of all site setup processes by Invicro. Patients underwent SPECT/CT imaging, with anatomical coverage typically extending from the salivary glands to the pelvis, following the administration of a targeted 7.4±10% GBq of ^177Lu-PSMA-I&T at cycle 1. SPECT/CT imaging was performed at four timepoints: 4 h, 24 h, 48 h, and 168 h post-injection. Additionally, a subset of patients imaged at Cycle 1 (16 out of 27), were also imaged at Cycle 3 (Table 2).
In general, raw projection data was acquired into a 128×128 matrix with medium energy general purpose (MEGP) collimation using a step and shoot acquisition mode, acquiring 60 projections per detector (180 degrees rotation per detector), 20 seconds per projection, with an acquisition zoom of 1.0, and a 20% (±10%) energy window centered over 208 keV.
A low-dose CT scan was performed prior to beginning the SPECT scan for attenuation correction. Sites were instructed to use the Institutional standard parameters for acquisition of the low-dose CT. Institutional standard reconstruction parameters were used. Scatter correction was required to be applied using a 20% (±10%) scatter window centered over 170 keV.
The imaging data was analyzed using Invicro's VivoQuant software, a validated software used in a 21 CFR § 11-compliant workflow. The general quantification approach was based on the principles detailed in the Medical Internal Radiation Dose (MIRD) Pamphlet No. 16, No 23, and No 26 as appropriate.
SPECT images were calibrated in units of Becquerel (Bq) using a calibration factor derived from a source of known activity, measured during site set up with the same acquisition and reconstruction parameters employed for patient imaging. A patient-specific calibration factor was also derived at each clinical time point after acquisition of the patient SPECT/CT. As a quality control measure, if the patient-specific calibration factor differed by more than 10% from the site set up calibration factor, an investigation was conducted.
Volume of interest (VOI) (kidneys, bladder, liver, lumbar vertebrae L2-L4, lacrimal glands, salivary glands [parotid and submandibular glands], and whole body) were delineated on each dataset by a trained image analyst. […] Organs were segmented either by drawing the entire contour of the organ, or by placing a sphere in a representative region of the organ and then multiplying by the organ's effective mass (based on patient's height and weight). Segmentation methods for each organ are specified in Table 3 and were consistently applied to each patient.
Clearance of the radiopharmaceutical was derived from a data-appropriate fit of each organ's TAC. Depending on the TAC's shape, the data was fitted with the sum of one, two, or three exponentials, or using a rise and fall model. Fitting was performed with in-house Python software. TIACs were calculated through analytical integration of the curve fit extrapolated to infinity. […]

[1] = cycle 1, target 7.4±10% GBq, mean±SD, patient 42-030 excluded

Absorbed Dose in Cycle 1, Mean (Prostate): 0.02 Gy/GBq
Absorbed Dose in Cycle 1, max (Prostate): 0.07 Gy/GBq
Absorbed Dose in Cycle 1, min (Prostate): 0.01 Gy/GBq
Absorbed Dose, Mean (Rectum): 0.44 Gy/GBq
Absorbed Dose, max (Rectum): 1.46 Gy/GBq
Absorbed Dose, median (Rectum): 0.39 Gy/GBq
Absorbed Dose, min (Rectum): 0.01 Gy/GBq
Absorbed Dose in Cycle 1, Mean (Rectum): 0.50 Gy/GBq
Absorbed Dose in Cycle 1, max (Rectum): 1.46 Gy/GBq
Absorbed Dose in Cycle 1, min (Rectum): 0.01 Gy/GBq
Absorbed Dose, Mean (Red Marrow): 0.08 Gy/GBq
Absorbed Dose, max (Red Marrow): 0.49 Gy/GBq
Absorbed Dose, median (Red Marrow): 0.03 Gy/GBq
Absorbed Dose, min (Red Marrow): 0.00 Gy/GBq
Absorbed Dose in Cycle 1, Mean (Red Marrow): 0.05 Gy/GBq
Absorbed Dose in Cycle 1, max (Red Marrow): 0.28 Gy/GBq
Absorbed Dose in Cycle 1, min (Red Marrow): 0.00 Gy/GBq
Absorbed Dose, Mean (Right Colon): 0.25 Gy/GBq
Absorbed Dose, max (Right Colon): 0.82 Gy/GBq
Absorbed Dose, median (Right Colon): 0.22 Gy/GBq
Absorbed Dose, min (Right Colon): 0.01 Gy/GBq
Absorbed Dose in Cycle 1, Mean (Right Colon): 0.28 Gy/GBq
Absorbed Dose in Cycle 1, max (Right Colon): 0.82 Gy/GBq
Absorbed Dose in Cycle 1, min (Right Colon): 0.01 Gy/GBq
Absorbed Dose, Mean (Salivary Glands): 0.19 Gy/GBq
Absorbed Dose, max (Salivary Glands): 0.80 Gy/GBq
Absorbed Dose, median (Salivary Glands): 0.15 Gy/GBq
Absorbed Dose, min (Salivary Glands): 0.03 Gy/GBq
Absorbed Dose in Cycle 1, Mean (Salivary Glands): 0.17 Gy/GBq
Absorbed Dose in Cycle 1, max (Salivary Glands): 0.80 Gy/GBq
Absorbed Dose in Cycle 1, min (Salivary Glands): 0.03 Gy/GBq
Absorbed Dose, Mean (Small intestine): 0.05 Gy/GBq
Absorbed Dose, max (Small intestine): 0.15 Gy/GBq
Absorbed Dose, median (Small intestine): 0.04 Gy/GBq
Absorbed Dose, min (Small intestine): 0.01 Gy/GBq
Absorbed Dose in Cycle 1, Mean (Small intestine): 0.06 Gy/GBq
Absorbed Dose in Cycle 1, max (Small intestine): 0.15 Gy/GBq
Absorbed Dose in Cycle 1, min (Small intestine): 0.01 Gy/GBq
Absorbed Dose, Mean (Spleen): 0.03 Gy/GBq
Absorbed Dose, max (Spleen): 0.11 Gy/GBq
Absorbed Dose, median (Spleen): 0.02 Gy/GBq
Absorbed Dose, min (Spleen): 0.01 Gy/GBq
Absorbed Dose in Cycle 1, Mean (Spleen): 0.03 Gy/GBq
Absorbed Dose in Cycle 1, max (Spleen): 0.11 Gy/GBq
Absorbed Dose in Cycle 1, min (Spleen): 0.01 Gy/GBq
Absorbed Dose, Mean (Stomach Wall): 0.02 Gy/GBq
Absorbed Dose, max (Stomach Wall): 0.07 Gy/GBq
Absorbed Dose, median (Stomach Wall): 0.01 Gy/GBq
Absorbed Dose, min (Stomach Wall): 0.00 Gy/GBq
Absorbed Dose in Cycle 1, Mean (Stomach Wall): 0.02 Gy/GBq
Absorbed Dose in Cycle 1, max (Stomach Wall): 0.07 Gy/GBq
Absorbed Dose in Cycle 1, min (Stomach Wall): 0.00 Gy/GBq
Absorbed Dose, Mean (Testes): 0.01 Gy/GBq
Absorbed Dose, max (Testes): 0.07 Gy/GBq
Absorbed Dose, median (Testes): 0.01 Gy/GBq
Absorbed Dose, min (Testes): 0.00 Gy/GBq
Absorbed Dose in Cycle 1, Mean (Testes): 0.01 Gy/GBq
Absorbed Dose in Cycle 1, max (Testes): 0.07 Gy/GBq
Absorbed Dose in Cycle 1, min (Testes): 0.00 Gy/GBq
Absorbed Dose, Mean (Thymus): 0.01 Gy/GBq
Absorbed Dose, max (Thymus): 0.07 Gy/GBq
Absorbed Dose, median (Thymus): 0.01 Gy/GBq
Absorbed Dose, min (Thymus): 0.00 Gy/GBq
Absorbed Dose in Cycle 1, Mean (Thymus): 0.01 Gy/GBq
Absorbed Dose in Cycle 1, max (Thymus): 0.07 Gy/GBq
Absorbed Dose in Cycle 1, min (Thymus): 0.00 Gy/GBq
Absorbed Dose, Mean (Thyroid): 0.01 Gy/GBq
Absorbed Dose, max (Thyroid): 0.07 Gy/GBq
Absorbed Dose, median (Thyroid): 0.01 Gy/GBq
Absorbed Dose, min (Thyroid): 0.00 Gy/GBq
Absorbed Dose in Cycle 1, Mean (Thyroid): 0.01 Gy/GBq
Absorbed Dose in Cycle 1, max (Thyroid): 0.07 Gy/GBq
Absorbed Dose in Cycle 1, min (Thyroid): 0.00 Gy/GBq
Absorbed Dose, Mean (Total Body): 0.02 Gy/GBq
Absorbed Dose, max (Total Body): 0.09 Gy/GBq
Absorbed Dose, median (Total Body): 0.02 Gy/GBq
Absorbed Dose, min (Total Body): 0.01 Gy/GBq
Absorbed Dose in Cycle 1, Mean (Total Body): 0.02 Gy/GBq
Absorbed Dose in Cycle 1, max (Total Body): 0.09 Gy/GBq
Absorbed Dose in Cycle 1, min (Total Body): 0.01 Gy/GBq
Absorbed Dose, Mean (Urinary Bladder wall): 0.41 Gy/GBq
Absorbed Dose, max (Urinary Bladder wall): 0.50 Gy/GBq
Absorbed Dose, median (Urinary Bladder wall): 0.41 Gy/GBq
Absorbed Dose, min (Urinary Bladder wall): 0.33 Gy/GBq
Absorbed Dose in Cycle 1, Mean (Urinary Bladder wall): 0.40 Gy/GBq
Absorbed Dose in Cycle 1, max (Urinary Bladder wall): 0.47 Gy/GBq
Absorbed Dose in Cycle 1, min (Urinary Bladder wall): 0.33 Gy/GBq
mean red marrow absorbed dose, remaining 20 patients (cycle 1, excluding six patients with unusually high marrow doses and the patient with a superscan): 0.02±0.02 Gy/GBq
mean red marrow (bone marrow) absorbed radiation dose (cycle 1, image-based method (L2-L4), mean±SD, patient 42-030 excluded): 0.08±0.12 Gy/GBq
absorbed radiation dose per gram of tissue, kidneys [1]: 0.41±0.15 Gy/GBq
absorbed radiation dose per gram of tissue, lacrimal glands [1]: 0.40±0.36 Gy/GBq
absorbed radiation dose per gram of tissue, left colon [1]: 0.47±0.31 Gy/GBq
absorbed radiation dose per gram of tissue, rectum [1]: 0.44±0.30 Gy/GBq
absorbed radiation dose per gram of tissue, urinary bladder [1]: 0.41±0.05 Gy/GBq
absorbed radiation dose per gram of tissue, salivary glands (cycle 1, target 7.4±10% GBq, mean±SD, patients 42-030 and 12-004 excluded): 0.19±0.16 Gy/GBq
SMILES: O=C(O)CC[C@H](NC(=O)N[C@@H](CCCCNC(=O)CCCCCCC(=O)NCCCC[C@@H](NC(=O)[C@@H](Cc1ccccc1)NC(=O)[C@@H](Cc1ccc(O)c(I)c1)NC(=O)CC[C@H](C(=O)O)N1CCN(CC(=O)O)CCN(CC(=O)O)CCN(CC(=O)O)CC1)C(=O)O)C(=O)O)C(=O)O [^177Lu-PSMA-I&T, (3S,7 S,26R,29R,32R,37R)-29-benzyl-32-(4-hydroxy-3-iodobenzyl)-5,13,20,28,31,34-hexaoxo-37-(4,7,10-tris(carboxymethyl)-1,4,7,10-tetraazacyclododecan-1-yl)-4,6,12,21,27,30,33-heptaazaheptatriacontane-1,3,7,26,37-pentacarboxylic acid; lutetium-177 (III), metal not drawn]
